In ChEMBL document CHEMBL3886955, “Pyrrolidine derivatives and their use as complement pathway modulators” (2016):

Target: Complement factor D (Homo sapiens, UniProt P00746)
Experiment: In Vitro Assay: Method 1: Recombinant human factor D (expressed in E. coli and purified using standard methods) at 10 nM concentration is incubated with test compound at various concentrations for 1 hour at room temperature in 0.1 M Hepes buffer, pH 7.5, containing 1 mM MgCl2, 1 M NaCl and 0.05% CHAPS. A synthetic substrate Z-Lys-thiobenzyl and 2,4-dinitrobenzenesulfonyl-fluoresceine are added to final concentrations of 200 μM and 25 μM, respectively. The increase in fluorescence is recorded at excitation of 485 nm and emission at 535 nm in a microplate spectrofluorimeter. IC50 values are calculated from percentage of inhibition of complement factor D-activity as a function of test compound concentration.

Sequence of Complement factor D (P00746 whole entry): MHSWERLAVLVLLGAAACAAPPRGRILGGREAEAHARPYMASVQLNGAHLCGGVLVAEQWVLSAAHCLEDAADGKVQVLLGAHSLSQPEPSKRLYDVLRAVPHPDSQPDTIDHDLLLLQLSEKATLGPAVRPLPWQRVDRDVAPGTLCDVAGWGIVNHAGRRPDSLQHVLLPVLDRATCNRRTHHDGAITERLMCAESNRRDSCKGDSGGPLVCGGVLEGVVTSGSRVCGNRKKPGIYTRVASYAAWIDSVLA

- IC50: 24 nM
SMILES: CC(C)=C(F)CNC(=O)[C@@H]1C[C@H]2C[C@H]2N1C(=O)Nc1cn(C(N)=O)c2ccccc12
